TGI data for two compounds are collected here from PubChem BioAssay (NCI).

Among the test systems are OVCAR-5 ovarian; NCI-H460 lung; SR leukemia; SK-MEL-2 melanoma; IGROV1 ovarian; CAKI-1 renal; OVCAR-3 ovarian; SF-539 CNS; OVCAR-8 ovarian; SK-MEL-28 melanoma; TK-10 renal; HT29 colon; OVCAR-4 ovarian; RXF 393 renal; UACC-62 melanoma; U251 CNS; LOX IMVI melanoma; ACHN renal; NCI-H23 lung; M14 melanoma.
Experiment in all cases: NCI tumour cell line growth inhibition, 48 h

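In this assay, cells in 96-well plates receive the compound at five concentrations for 48 hours. Endpoints are linearly interpolated between the surrounding concentrations. The concentration for full growth arrest is given as TGI.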

For `NC(CCOCCP(=O)(O)O)C(=O)O` (stereo not given), the TGI with OVCAR-5 ovarian, in the assay on NCI-H460 lung, with SR leukemia, with SK-MEL-2 melanoma, with IGROV1 ovarian and in the assay with CAKI-1 renal was over 100 µM in each case. The TGI with OVCAR-3 ovarian, in the assay with SF-539 CNS, with OVCAR-8 ovarian, with SK-MEL-28 melanoma, with TK-10 renal and with HT29 colon was over 100 µM each time. The TGI in the assay on OVCAR-4 ovarian, in the assay with RXF 393 renal, with UACC-62 melanoma, in the assay with U251 CNS, in the assay on LOX IMVI melanoma and with ACHN renal was over 100 µM throughout. For the same compound, the TGI in the assay on NCI-H23 lung and with M14 melanoma was over 100 µM throughout.
`COc1c2c(c3ccccc3c1O)C1C=CC2C1` (stereo not given): the TGI in the assay on OVCAR-5 ovarian amounted to 33.9 µM; with NCI-H460 lung, 34 µM; in the assay on SR leukemia, 68.4 µM; in the assay on SK-MEL-2 melanoma, 31.5 µM; with IGROV1 ovarian, 39 µM; in the assay with CAKI-1 renal, 30.8 µM. Moreover, the TGI was determined as 27.6 µM in the assay with OVCAR-3 ovarian; 29 µM in the assay on SF-539 CNS; 28.7 µM with OVCAR-8 ovarian; 37.9 µM with SK-MEL-28 melanoma; 36.8 µM in the assay on TK-10 renal; 39.2 µM with HT29 colon. For the same compound, the TGI in the assay on OVCAR-4 ovarian turned out to be 28.7 µM; with RXF 393 renal, 28.9 µM; with UACC-62 melanoma it was 30.4 µM; in the assay with U251 CNS, 23.9 µM; with LOX IMVI melanoma it was 17.1 µM; in the assay on ACHN renal, 27.5 µM. The TGI with NCI-H23 lung is 28.9 µM; with M14 melanoma, 27.9 µM.
